Source: article PMC11322497 (Frontiers in Pharmacology, 2024)

Key:
[1] = system: high fat diet (HFD) rabbit model of metabolic-associated steatohepatitis (MASH); assay: HFD rabbit study, acute 5-day treatment at week 12: clinical and biochemical data, tolerability; format: in vivo; conditions: for ALT / AST / Glycaemia / Liver Weight / MAP / OGTT (iAUC) / Plasma Cholesterol / Plasma Triglycerides: 30 mg/kg p.o. q.d. 5 days, mean ± SD, n = 3
Procedure: A total number of 64 male New Zealand White rabbits (Charles River, Calco, Lecco, Italy), weighing about 3 kg, were individually caged under standard conditions in a temperature- and humidity-controlled room on a 12 h light/dark cycle. Water and food were unrestricted throughout the study. Experimental procedures were conducted using the facilities of the Department of Biomedical Experimental and Clinical Sciences “Mario Serio” and Department of Experimental and Clinical Medicine, and those of CE.S.A.L. (Centro Stabulazione degli Animali da Laboratorio), and NEUROFARBA Department, University of Florence, Italy.
The dose employed was established based on pilot pharmacokinetics studies in rabbits performed historically in naïve rabbits (data not shown). This first part of the study allowed the determination of the therapeutic benefits of selvigaltin following acute treatment, thus validating the model for further investigation of this mechanism in a chronic treatment protocol.
After 1 week of standard diet, animals (n = 12) were randomly assigned to the following groups (Table 1A): • Control rabbits continued to receive a regular diet (RD) for 12 weeks and were treated for 5 days (days 1–5, p.o.), during the last week before culling, with either vehicle; RD+1W Veh group] or GB1211 (30 mg/kg; RD + 1W 30 mg group); • Rabbits received a high fat diet (HFD) for 12 weeks (RD implemented with 0.5% cholesterol and 2.5% vegetable fat) and were treated for 5 days (days 1–5, p.o.), during the last week before culling, with either vehicle (HFD + 1W Veh group) or GB1211 (30 mg/kg; HFD + 1W 30 mg group).
The oral glucose tolerance test (OGTT) was performed in accordance with the published method ([Filippi et al., 2009]). Briefly, after an overnight fast, a 50% glucose solution was orally administered to the animals at a dose of 1.5 g/kg. Blood samples were collected before and 15, 30, and 120 min after glucose loading. The incremental area under the curve (iAUC) was calculated by using GraphPad Prism (GraphPad Software, San Diego, CA). Blood samples for analyses were obtained from the marginal ear vein at week 8 or 12, in all groups. All blood samples were collected in standard conditions, before 10 a.m. after an overnight fasting. The blood was immediately centrifuged at 2,000 g for 20 min at 4°C and collected plasma/serum stored at −80°C until assayed. Plasma glucose, total cholesterol, triglycerides, transaminases (AST and ALT), and gamma-glutamyl transferase levels were measured using an automated system (Cobas 8000, Roche Diagnostics International AG, Rotkreuz, Switzerland). Serum alkaline phosphatase, albumin and total bilirubin levels were measured at IDEXX Laboratories (Kornwestheim, Germany), using an automated system (AU480, Beckman-Coulter, Brea, CA) with kinetic and photometric colour tests as per the following methods: alkaline phosphatase - alkaline buffer solution [2-amino-2-methylpropanol (AMP) in conjunction with p-nitrophenyl phosphate (pNPP)], according to the recommendation of the International Federation for Clinical Chemistry; albumin - the reaction of bromocresol green with albumin produces a colour complex, the absorption of which is measured dichromatically ([Doumas et al., 1971]); total bilirubin - a stabilized diazonium salt, 3,5-dichlorophenyldiazonium tetrafluoroborate (DPD), reacts with bilirubin to formazobilirubin, which absorbs at 570 nm ([Tolman and Rej, 1999]).
Mean arterial blood pressure (MAP) was measured by using a polyethylene catheter inserted into a femoral artery at week 8 or 12, after ketamine (10 mg/kg i.v.) and sodium thiopental (50 mg/kg i.v.) sedation.

[2] = Ex vivo plasma protein binding, terminal bleed after 5 days of acute dosing; format: in vitro ADME; conditions: rabbit, plasma from dosed rabbits (ex vivo), oral, 30 mg/kg, terminal bleed after 5 days 30 mg/kg, week 12

## OC[C@H]1O[C@H](Sc2cncc(Br)c2)[C@H](O)[C@@H](n2cc(-c3cc(F)c(F)c(F)c3)nn2)[C@H]1O [selvigaltin]
[1]; 30 mg/kg/day p.o., 5 days
  tolerability: well tolerated
[1]; HFD rabbits
  ALT: 97.33 ± 54.99 U/L
  AST: 231.67 ± 22.30 U/L
  Glycaemia: 1.60 ± 0.14 gr/L
  Liver Weight: 3.94 ± 0.55 % of BW
  MAP: 130.83 ± 20.36 mmHg
  OGTT (iAUC): 220.33 ± 8.63
  Plasma Cholesterol: 2064.00 ± 268.00 mg/dL
  Plasma Triglycerides: 88.00 ± 42.14 mg/dL
[1]; RD rabbits
  ALT: 36.33 ± 25.11 U/L
  AST: 29.33 ± 5.86 U/L
  Glycaemia: 1.12 ± 0.17 gr/L
  Liver Weight: 2.40 ± 0.33 % of BW
  MAP: 88.75 ± 14.09 mmHg
  OGTT (iAUC): 165.90 ± 11.12
  Plasma Cholesterol: 21.67 ± 3.51 mg/dL
  Plasma Triglycerides: 56.00 ± 21.28 mg/dL
[2]; HFD rabbits
  fraction unbound at 5 days: 0.929
[2]; RD rabbits
  fraction unbound at 5 days: 0.946
